Results on 3 compounds are retold here after patent publication US7368437B1, “Bicyclic heterocycles, processes for their preparation and their use as herbicides and pharmaceutical agents” (Bayer CropScience AG, priority 1999, dated 2008).

Series [1] relates to Xanthomonas oryzae. The note with it: stated in the literature; cited from earlier work.

Take `OC[C@H]1O[C@@H](c2n[nH]c3cncnc23)[C@H](O)[C@@H]1O` [Ib, 3-β-D-Ribofuranosyl-1H-pyrazolo[4,3-d]pyrimidine]: the melting point (as a rule, the temperature, or range, at which the solid turns liquid) is 227 to 228 °C. The “action against Xanthomonas oryzae” value in series [1] was “fungicidal action”. In the case of `CN(C)c1ncc2nnc([C@@H]3O[C@H](COC(=O)c4ccccc4)[C@@H](OC(=O)c4ccccc4)[C@H]3OC(=O)c3ccccc3)n2n1` [If, 6-Dimethylamino-3-(2′,3′,5′-tri-O-benzoyl-β-ribofuranosyl)-1,2,4-triazolo-[3,4-f]-1,2,4-triazine], the melting point fell in the range of 79 to 80 °C. `CN(C)c1ncc2nnc([C@@H]3O[C@H](CO)[C@@H](O)[C@H]3O)n2n1` [Ig, 6-Dimethylamino-3-β-ribofuranosyl-1,2,4-triazolo[3,4-f]-1,2,4-triazine] gave a melting point of 171 to 173 °C.
